Measurements taken from patent publication US11739083B2, “Disposable sensor chip with reagent including 2-substituted benzothiazolyl-3-substituted phenyl-5-substituted sulfonated phenyl-2H-tetrazolium salt” (TERUMO KABUSHIKI KAISHA, priority 2016, dated 2023).

Key:
[1] = Evaluation Example 3: estimation of molar extinction coefficient; assay type: physicochemical; conditions: colored chelate compound of formazan and Ni2+ at λmax=635 nm; FIG. 18
Experimental: A measurement solution was produced in the same manner as described in the section for the evaluation of the chelation rate and the maximum absorption wavelength (λmax), using the tetrazolium compound 1 of Example 1.
Estimation of the molar extinction coefficient was carried out using the blood glucose meter sensor of FIG. 13. At this time, it is assumed that tetrazolium compound 1 reacts with glucose at a ratio of 1:1 (molar ratio). The concentration (mol/L) of β-glucose include in the spotted aqueous glucose solution was designated as x, and the value obtained by calculating the absorbance at 630 nm of the blood glucose meter sensor having aqueous glucose solution spotted thereon, to a value per 1 cm, was designated as y. The gradient of a straight line obtained at that time is designated as the molar extinction coefficient (calculated based on a glucose molecular weight 180.16, and a β-glucose ratio in the solution of 62%).
FIG. 18 presents a graph obtained when the concentration (mol/L) of β-glucose was used as x value, and the absorbance at λmax=635 nm of colored chelate compound of formazan and Ni^2+, which was calculated into a value per 1 cm (abs/cm), was used as y value. From the graph, the molar extinction coefficient at λmax=635 nm of a colored chelate compound of formazan and Ni^2+ is ε=22,594 L/mol·cm.

[2] = Maximum absorption wavelength (λmax) of formazan-nickel chelate by spectrophotometer; assay type: physicochemical; conditions: chelate of formazan and nickel ion, aqueous MOPS, cell length 10 mm, n=1
Experimental: 10 mM aqueous solution of MOPS was added to each of the formazan compounds so as to obtain a final concentration of […], and thereby 100 μL of a sample was produced. At this time, all of the samples were red-brown in color. Apart from this, a 1 M aqueous solution of nickel ion was produced.
For mixed solutions of various compounds in an aqueous solution of formazan and an aqueous solution of nickel, the spectra were measured with a spectrophotometer (measurement cell length: 10 mm) (n=1). Based on each of the spectra, the maximum absorption wavelength (λmax) (nm) of each of the compounds in formazan was determined. From FIG. 1, it is understood that the maximum absorption wavelength (λmax) of the chelate compound of formazan compound 1 and nickel ion is 630 nm.
The absorbance at the maximum absorption wavelength is denoted as 100%.

[3] = Evaluation of stability (absorbance increase of measurement solution over 6 hours); conditions: FIG. 3; absorbance increase per hour over 6 hours
Experimental: To 0.02 mmol of each compound, 75 μL of RO water and 100 μL of a 0.5 M MOPS solution (pH 7.2) were added, and the compound was dissolved therein. The solution was used as a sample.
To 175 μL of this sample, 10 μL of the GDH solution, 5 μL of the m-PMS solution, and 10 μL of the nickel solution, all of which had been produced in the same manner as in the above section (Evaluation of sensitivity), were added, and thereby a measurement solution was produced.
As a control, 85 μL of RO water and 100 μL of a 0.5 M MOPS solution (pH 7.2) were added to 11.6 mg of 2-benzothiazolyl-3-(4-carboxy-2-methoxyphenyl)-5-[4-(2-sulfoethylcarbamoyl)phenyl]-2H-tetrazolium (WST-4), and the compound was dissolved. Thus, a control sample was produced. […] Thus, a control reaction solution was produced.
At the time of production of the measurement solution (0 hour), and after 1 hour, 2 hours, and 6 hours from the production, the spectra of the measurement solutions produced as described above were measured using a spectrophotometer (measurement cell length: 50 μm) (n=1). For each spectrum, the absorbance at the maximum absorption wavelength (λmax) of each compound as determined above was measured. The absorbances measured at the time of production of the measurement solution (0 hour) and after 6 hours from the production were designated as Abs0 h and Abs6 h, respectively. […]

[4] = Evaluation Example 1: evaluation as blood glucose meter sensor
Experimental: Separately, 100 μL of RO water was added to 7 mg of a glucose dehydrogenase (GDH-FAD) (manufactured by TOYOBO CO., LTD., product No.: GLD-351) to dissolve the enzyme, and thus a GDH solution was produced. Furthermore, 200 μL of RO water was added to 3.5 mg of 1-methoxy-5-methylphenazium methyl sulfate (m-PMS) (manufactured by DOJINDO LABORATORIES) to dissolve the compound, and thus an s-PMS solution was produced. 1 mL of RO water was added to 129 mg of nickel chloride to dissolve the salt, and thus a nickel solution was produced.
The coating liquid obtained as described above was applied on a PET film, and a reagent ribbon 1 was produced. The area of coating was 1.5 mm×75 mm (total coating amount 5.6 μL). This reagent ribbon 1 was cut in the longitudinal direction, and a reagent piece 2 was obtained (1.5 mm×3 mm).
Along the two edges of a PET film 5 that would become one surface of a blood glucose meter sensor, a double-sided tape having a thickness of […] was provided as a spacer. […]
A whole blood sample (Ht40, 100 mg/dL) (hematocrit value 40%, glucose concentration 100 mg/dL) was spotted at the flow channel inlet port of the blood glucose meter sensor thus produced. The whole blood sample (Ht40, 100 mg/dL) was produced as follows: whole blood was collected into a heparin-containing blood sampling tube, the hematocrit value of this whole blood was measured, and the hematocrit value of the whole blood sample was regulated to be Ht40 by adding the blood plasma obtained by separation in advance, or by removing the blood plasma of the whole blood sample, as appropriate. […] The specimen was spotted on the reagent part, and then after 9 seconds, the spectrum was measured using a fiber spectrophotometer. The absorbance at the maximum absorption wavelength was measured using the spectrum measured with each of the blood glucose meter sensors that used various compounds. The absorbance obtainable in the case of measuring the whole blood sample (Ht40, 100 mg/dL) was designated as AbsBG100. […]

COc1ccc2nc(-n3nc(-c4ccc(S(=O)(=O)O)cc4S(=O)(=O)[O-])n[n+]3-c3ccc(OC)c(S(=O)(=O)O)c3)sc2c1 [Example 1]
molar extinction coefficient ε [1]: 22,594 L/mol·cm
Maximum absorption wavelength (λmax) [2]: 630 nm
[(Abs6 h−Abs0 h)/6] value [3]: about 0.008
time to completion of color development ([4]; whole blood and aqueous glucose solution, absorbance at 630 nm, FIG. 7): 5 s
absorbance ([4]; whole blood and aqueous glucose solutions, 9 seconds from initiation of reaction, FIG. 6): higher than 0.2
color development (ΔAbs=AbsBG100−AbsBG0) relative to WST-4 (650 nm) ([4]; whole blood sample Ht40, 100 mg/dL, 9 seconds, FIG. 5): about 3 times
